Bounds are passed on as bounds.

The target of the assay is CDK7 (Homo sapiens (Human), UniProt P50613). Put plainly: Inhibition of kinase activity, CDK7. Type of assay: biochemical. The following applies: co-factors cyclin H and MNAT1. The protocol: Compounds of the invention were assayed for activity against a variety of different kinases. Exemplary results are presented as calculated IC50 values (Table A1 & A2). In Table A1 and A2 “A” represents a calculated IC50 value of less than 100 nM; “B” represents a calculated IC50 value of greater than or equal to 100 nM and less than 1 μM; and “C” represents a calculated IC50 value of 1 μM or greater. The co-factors used for each kinase in the assays were as follows: CDK7: cyclin H and MNAT1; CDK2: cyclin A; CDK9: cyclin K.
CDK7, sequence (P50613 whole entry): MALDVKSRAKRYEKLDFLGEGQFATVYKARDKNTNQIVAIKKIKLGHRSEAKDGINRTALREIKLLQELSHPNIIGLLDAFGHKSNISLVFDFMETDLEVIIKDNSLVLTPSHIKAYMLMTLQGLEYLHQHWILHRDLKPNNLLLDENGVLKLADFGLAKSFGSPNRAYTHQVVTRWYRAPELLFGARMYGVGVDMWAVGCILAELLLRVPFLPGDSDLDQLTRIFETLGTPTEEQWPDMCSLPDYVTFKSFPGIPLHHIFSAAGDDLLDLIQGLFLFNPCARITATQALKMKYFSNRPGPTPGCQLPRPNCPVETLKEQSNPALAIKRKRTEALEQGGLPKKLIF
CDK7, sequence (P51946 whole entry partner): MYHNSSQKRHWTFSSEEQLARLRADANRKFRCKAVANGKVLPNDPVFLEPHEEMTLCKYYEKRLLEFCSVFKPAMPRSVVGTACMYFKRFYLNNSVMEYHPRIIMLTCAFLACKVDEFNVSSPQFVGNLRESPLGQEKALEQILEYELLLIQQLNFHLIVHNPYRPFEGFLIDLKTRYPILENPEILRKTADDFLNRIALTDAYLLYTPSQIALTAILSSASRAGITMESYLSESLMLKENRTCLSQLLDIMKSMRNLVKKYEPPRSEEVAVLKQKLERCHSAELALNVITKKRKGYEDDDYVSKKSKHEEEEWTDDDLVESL
CDK7, sequence (P51948 whole entry partner): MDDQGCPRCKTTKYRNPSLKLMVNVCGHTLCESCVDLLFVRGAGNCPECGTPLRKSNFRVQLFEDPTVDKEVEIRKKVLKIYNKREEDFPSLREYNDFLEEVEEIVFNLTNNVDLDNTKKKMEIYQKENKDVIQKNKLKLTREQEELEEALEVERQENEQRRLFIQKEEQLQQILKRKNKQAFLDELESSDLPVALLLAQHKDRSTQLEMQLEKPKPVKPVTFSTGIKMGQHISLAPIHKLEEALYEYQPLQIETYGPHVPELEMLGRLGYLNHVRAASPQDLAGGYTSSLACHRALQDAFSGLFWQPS
In the case of `C=CC(=O)Nc1ccc(C(=O)Nc2n[nH]c3c2CN(C(=O)N[C@H](CN(C)C)c2ccccc2)C32CCCCC2)cc1` [Compound 236, (S)-3′-(4-acrylamidobenzamido)-N-(2-(dimethylamino)-1-phenylethyl)-1′,4′-dihydro-5′H-spiro(cyclohexane-1,6′-pyrrolo[3,4-c]pyrazole]-5′-carboxamide], the IC50 fell in the range of 100 to 1000 nM.

On to `C=CC(=O)N1CCC(C(=O)Nc2n[nH]c3c2CN(C(=O)N[C@H](CN(C)C)c2ccccc2)C3(C)C)CC1` [Compound 123, (S)-3-(1-acryloylpiperidine-4-carboxamido)-N-(2-(dimethylamino)-1-phenylethyl)-6,6-dimethyl-4,6-dihydropyrrolo[3,4-c]pyrazole-5(1H)-carboxamide], for which the IC50 is below 100 nM. The figure for `C=CC(=O)Nc1cccc(C(=O)Nc2n[nH]c3c2CN(C(=O)N[C@H](CN(C)C)c2ccccc2)C3(C)C)c1` [Compound 120, (S)-3-(3-acrylamidobenzamido)-N-(2-(dimethylamino)-1-phenylethyl)-6,6-dimethyl-4,6-dihydropyrrolo[3,4-c]pyrazole-5(1H)-carboxamide] is below 100 nM; for `C=CC(=O)Nc1ccc(C(=O)N2CCCC(Nc3n[nH]c4c3CN(C(=O)N[C@H](CN(C)C)c3ccccc3)C4(C)C)C2)cc1` (stereo partly drawn) [Compound 115, 3-((1-(4-acrylamidobenzoyl)piperidin-3-yl)amino)-N-((S)-2-(dimethylamino)-1-phenylethyl)-6,6-dimethyl-4,6-dihydropyrrolo[3,4-c]pyrazole-5(1H)-carboxamide] it is below 100 nM; for `C=CC(=O)Nc1ccc(C(=O)N2CCC(Nc3n[nH]c4c3CN(C(=O)N[C@H](CN(C)C)c3ccccc3)C4(C)C)CC2)cc1` [Compound 116, (S)-3-((1-(4-acrylamidobenzoyl)piperidin-4-yl)amino)-N-(2-(dimethylamino)-1-phenylethyl)-6,6-dimethyl-4,6-dihydropyrrolo[3,4-c]pyrazole-5(1H)-carboxamide] it is below 100 nM. With `C=CC(=O)Nc1cccc(C(=O)Nc2ccc(Nc3n[nH]c4c3CN(C(=O)N[C@H](CN(C)C)c3ccccc3)C4(C)C)cc2)c1` [Compound 103, (S)-3-((4-(3-acrylamidobenzamido)phenyl)amino)-N-(2-(dimethylamino)-1-phenylethyl)-6,6-dimethyl-4,6-dihydropyrrolo[3,4-c]pyrazole-5(1H)-carboxamide], the IC50 was below 100 nM.

With `C=CC(=O)N[C@H]1CC[C@H](C(=O)Nc2n[nH]c3c2CN(C(=O)N[C@H](CN(C)C)c2ccccc2)C3(C)C)CC1` [Compound 222, 3-((1r,4S)-4-acrylamidocyclohexane-1-carboxamido)-N-((S)-2-(dimethylamino)-1-phenylethyl)-6,6-dimethyl-4,6-dihydropyrrolo[3,4-c]pyrazole-5(1H)-carboxamide], the IC50 was below 100 nM. For `C=CC(=O)Nc1ccc(C(=O)Nc2n[nH]c3c2CN(C(=O)N[C@H](CN(C)C)c2ccccc2)C3(C)C)c(OC)c1` [Compound 216, (S)-3-(4-acrylamido-2-methoxybenzamido)-N-(2-(dimethylamino)-1-phenylethyl)-6,6-dimethyl-4,6-dihydropyrrolo[3,4-c]pyrazole-5(1H)-carboxamide], the IC50 is below 100 nM. Regarding `C=CC(=O)Nc1ccc(C(=O)Nc2n[nH]c3c2CN(C(=O)N[C@H](CN(C)C)c2ccccc2)[C@@H]3C(C)C)cc1` [Compound 234, (R)-3-(4-acrylamidobenzamido)-N-((S)-2-(dimethylamino)-1-phenylethyl)-6-isopropyl-4,6-dihydropyrrolo[3,4-c]pyrazole-5(1H)-carboxamide], the IC50 is below 100 nM. With `C=CC(=O)Nc1ccc(C(=O)Nc2n[nH]c3c2CN(C(=O)N[C@H](CN(C)C)c2ccccc2)[C@H]3C(C)C)cc1` [Compound 235, (S)-3-(4-acrylamidobenzamido)-N-((S)-2-(dimethylamino)-1-phenylethyl)-6-isopropyl-4,6-dihydropyrrolo[3,4-c]pyrazole-5(1H)-carboxamide], the IC50 was at least 1000 nM.

`C=CC(=O)N1CCC[C@@H](C(=O)Nc2n[nH]c3c2CN(C(=O)N[C@H](CN(C)C)c2ccccc2)C3(C)C)C1` [Compound 113, 3-((R)-1-acryloylpiperidine-3-carboxamido)-N-((S)-2-(dimethylamino)-1-phenylethyl)-6,6-dimethyl-4,6-dihydropyrrolo[3,4-c]pyrazole-5(1H)-carboxamide]: the IC50 is below 100 nM. The value for `C=CC(=O)Nc1ccc(C(=O)NC2CCC(Nc3n[nH]c4c3CN(C(=O)N[C@H](CN(C)C)c3ccccc3)C4(C)C)CC2)cc1` (stereo partly drawn) [Compound 119, (S)-3-((4-(4-acrylamidobenzamido)cyclohexyl)amino)-N-(2-(dimethylamino)-1-phenylethyl)-6,6-dimethyl-4,6-dihydropyrrolo[3,4-c]pyrazole-5(1H)-carboxamide] was below 100 nM; that for `C=CC(=O)Nc1cccc(C(=O)Nc2cccc(Nc3n[nH]c4c3CN(C(=O)N[C@H](CN(C)C)c3ccccc3)C4(C)C)c2)c1` [Compound 105, (S)-3-((3-(3-acrylamidobenzamido)phenyl)amino)-N-(2-(dimethylamino)-1-phenylethyl)-6,6-dimethyl-4,6-dihydropyrrolo[3,4-c]pyrazole-5(1H)-carboxamide] was below 100 nM; that for `C=CC(=O)Nc1ccc(C(=O)Nc2n[nH]c3c2CN(C(=O)N[C@H](CN(C)C)c2ccccc2)C32CC2)cc1` [Compound 233, (S)-3′-(4-acrylamidobenzamido)-N-(2-(dimethylamino)-1-phenylethyl)-1′,4′-dihydro-5′H-spiro[cyclopropane-1,6′-pyrrolo[3,4-c]pyrazole]-5′-carboxamide] was below 100 nM. Consider `C=CC(=O)Nc1cccc(C(=O)Nc2nn(C)c3c2CN(C(=O)N[C@H](CN(C)C)c2ccccc2)C3(C)C)c1` [Compound 241, (S)-3-(3-acrylamidobenzamido)-N-(2-(dimethylamino)-1-phenylethyl)-1,6,6-trimethyl-4,6-dihydropyrrolo[3,4-c]pyrazole-5(1H)-carboxamide], for which the IC50 was below 100 nM.

In turn, `C=CC(=O)Nc1ccc(C(=O)Nc2n[nH]c3c2CN(C(=O)N[C@H](CN(C)C)c2ccccc2)C3(C)C)cc1` [Compound 214, (S)-3-(4-acrylamidobenzamido)-N-(2-(dimethylamino)-1-phenylethyl)-6,6-dimethyl-4,6-dihydropyrrolo[3,4-c]pyrazole-5(1H)-carboxamide] yielded an IC50 below 100 nM. The figure for `C=CC(=O)Nc1ccc(C(=O)Nc2n[nH]c3c2CN(C(=O)N[C@H](CN(C)C)c2ccccc2)[C@@H]3c2ccccc2)cc1` [Compound 237, (R)-3-(4-acrylamidobenzamido)-N-((S)-2-(dimethylamino)-1-phenylethyl)-6-phenyl-4,6-dihydropyrrolo[3,4-c]pyrazole-5(1H)-carboxamide] is at least 1000 nM. The figure for `C=CC(=O)Nc1cccc(Nc2n[nH]c3c2CN(C(=O)N[C@H](CN(C)C)c2ccccc2)C3(C)C)c1` [Compound 110, (S)-3-((3-acrylamidophenyl)amino)-N-(2-(dimethylamino)-1-phenylethyl)-6,6-dimethyl-4,6-dihydropyrrolo[3,4-c]pyrazole-5(1H)-carboxamide] is below 100 nM; for `C=CC(=O)Nc1ccc(C(=O)Nc2cccc(Nc3n[nH]c4c3CN(C(=O)NC(C)CN(C)C)C4(C)C)c2)cc1` (stereo not shown) [Compound 108, 3-((3-(4-acrylamidobenzamido)phenyl)amino)-N-(1-(dimethylamino)propan-2-yl)-6,6-dimethyl-4,6-dihydropyrrolo[3,4-c]pyrazole-5(1H)-carboxamide] it is below 100 nM; for `C=CC(=O)Nc1ccc(C(=O)Nc2n[nH]c3c2CN(C(=O)N[C@H](CN(C)C)c2ccccc2)C3(C)C)cc1OC` [Compound 217, (S)-3-(4-acrylamido-3-methoxybenzamido)-N-(2-(dimethylamino)-1-phenylethyl)-6,6-dimethyl-4,6-dihydropyrrolo[3,4-c]pyrazole-5(1H)-carboxamide] it is below 100 nM. As to `C=CC(=O)Nc1ccc(C(=O)N[C@@H]2CCC[C@@H](Nc3n[nH]c4c3CN(C(=O)N[C@H](CN(C)C)c3ccccc3)C4(C)C)C2)cc1` [Compound 118, 3-(((1R,3R)-3-(4-acrylamidobenzamido)cyclohexyl)amino)-N-((S)-2-(dimethylamino)-1-phenylethyl)-6,6-dimethyl-4,6-dihydropyrrolo[3,4-c]pyrazole-5(1H)-carboxamide], the IC50 was below 100 nM. `C=CC(=O)N1CCCC(Nc2n[nH]c3c2CN(C(=O)N[C@H](CN(C)C)c2ccccc2)C3(C)C)C1` (stereo partly drawn) [Compound 232, 3-((1-acryloylpiperidin-3-yl)amino)-N-((S)-2-(dimethylamino)-1-phenylethyl)-6,6-dimethyl-4,6-dihydropyrrolo[3,4-c]pyrazole-5(1H)-carboxamide] yielded an IC50 below 100 nM. The value for `C=CC(=O)Nc1ccc(C(=O)Nc2c3c(nn2C)C(C)(C)N(C(=O)N[C@H](CN(C)C)c2ccccc2)C3)cc1` [Compound 242, (S)-3-(4-acrylamidobenzamido)-N-(2-(dimethylamino)-1-phenylethyl)-2,6,6-trimethyl-2,6-dihydropyrrolo[3,4-c]pyrazole-5(4H)-carboxamide] was at least 1000 nM; that for `C=CC(=O)Nc1ccc(C(=O)Nc2nn(C)c3c2CN(C(=O)O[C@H](CN(C)C)c2ccccc2)C3(C)C)cc1` [Compound 246, (S)-2-(dimethylamino)-1-phenylethyl 3-(4-acrylamidobenzamido)-1,6,6-trimethyl-4,6-dihydropyrrolo[3,4-c]pyrazole-5(1H)-carboxylate] was 100 to 1000 nM. The figure for `CCC(=O)Nc1ccc(C(=O)Nc2n[nH]c3c2CN(C(=O)N[C@H](CN(C)C)c2ccccc2)C3(C)C)cc1` [Compound 215, (S)-N-(2-(dimethylamino)-1-phenylethyl)-6,6-dimethyl-3-(4-propionamidobenzamido)-4,6-dihydropyrrolo[3,4-c]pyrazole-5(1H)-carboxamide] is below 100 nM.

The record behind these values is US10870651B2, “Inhibitors of cyclin-dependent kinase 7 (CDK7)” (Dana-Farber Cancer Institute, Inc., priority 2014, dated 2020).
